The conditions of data set [1]: anion; cited from earlier work.
In another data set the test system is mytotubes (C2C12 cells). To be noted: IL at varying concentrations, with or without OVA. The procedure:
(§1) The impact of differential payloads impacting the ChoSorb response was investigated in vitro. The experiment was done with IL alone and IL+OVA at each concentration to understand how payload (OVA) impacts the cell death pathway since payload may impact the early cell death pathway. Cells were treated with IL at varying concentrations and with or without OVA, then stained with Annexin V and PI at 24 hours (FIGS. 28A-28B).

For a further data set, the system named is primary dendritic cells. The following applies: IL at varying concentrations, with or without OVA. The procedure: as §1
For the next data set, the target named is T1, OVA (Gallus gallus, UniProt P01012).
T1 sequence (P01012 1-386): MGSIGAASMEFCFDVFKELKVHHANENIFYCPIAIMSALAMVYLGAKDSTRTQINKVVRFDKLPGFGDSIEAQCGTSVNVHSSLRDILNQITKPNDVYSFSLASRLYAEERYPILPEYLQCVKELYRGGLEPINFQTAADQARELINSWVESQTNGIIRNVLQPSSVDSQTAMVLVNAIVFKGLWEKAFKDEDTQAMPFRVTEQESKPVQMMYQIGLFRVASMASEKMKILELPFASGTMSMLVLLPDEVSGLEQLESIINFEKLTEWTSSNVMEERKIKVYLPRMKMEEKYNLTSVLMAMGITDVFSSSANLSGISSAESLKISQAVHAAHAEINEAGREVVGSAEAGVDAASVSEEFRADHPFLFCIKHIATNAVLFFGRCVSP
Kind of data set: Stability of OVA combined with IL adjuvants (dialysis/SEC, circular dichroism, SDS page). Type of data set: physicochemical. The source says:
Anions were varied based on hydrophobicity (FIG. 8). […] ILs were screened for: • a. Stability of OVA. […] In vitro immune cell maturation and activation.
Role of the payload. […] Simple dialysis was replaced by SEC to remove OVA from ChoShorb formulations.
(In general: Circular dichroism is the unequal absorption of left and right circularly polarised light.)

The conditions of data set [2]: 10% ChoSorb injections. As to the method:
Blood was drawn 4 and 24 hours after the initial dose, and the levels of IL6 and MCP-1 measured (FIGS. 11A-11D). The levels of Tetramer cells were measured at Day 21 and Day 35 (FIGS. 12A-12D). […] The antibody response was measured (FIGS. 13A-13B).

For a further data set, the system named is Balb/c mice. The procedure: Balb/c mice received one immunization with 10% IL (w/v) and ovalbumin as a model antigen. The antibody and humoral response was then measured.
(§2) Cytokine responses were measured 4 hours after injection.
Antibody responses were measured 14 days after injection.

In a further data set the test system is Balb/c and C57BL/6 mice. The following applies: after priming and booster shot.
The subject of another data set is LPO expression. Nature of the data set: LPO expression with or without deferoxamine (ferroptosis indication). In kind it is cell-based.
The conditions of data set [3]: lower doses, comparing across IL concentration.
The next data set concerns C57BL/6 mice. As to the method:
C57BL/6 mice received two immunizations with 10% IL (w/v) and ovalbumin as a model antigen, at day 0 and day 14.
as §2
Antibody responses were measured 14 and 28 days after injection.
T cell responses were measured 7, 14, 21, or 28 days after injection.

Setting [4] is: 4 hours after injection, 10% IL (w/v) with ovalbumin.

“Also recorded” adds a separate entry of the source. Where two headings read alike, the source gives them in different places.

Method for Balb/c and C57BL/6 mice: In vivo vaccination of OVA with IL adjuvants in Balb/c and C57BL/6 mice. Antigen-specific antibodies and CD8+ T cell responses were evaluated after priming and booster shot.

The term LogP denotes the decadic logarithm of the partition coefficient of the neutral form, usually between octanol and water. In the case of `C/C=C/C/C=C/C(=O)O` [(2E,5E)-2,5-Heptadienoic acid], in data set [1], the log partition coefficient (LogP) is 1.6.

As to `C/C=C/C=C/C(=O)[O-].C[N+](C)(C)CCO` [ChoSorb, choline:sorbic acid], the “apoptosis (Annexin V and PI)” value in the data set on mytotubes (C2C12 cells) and in the data set with primary dendritic cells was “apoptosis occurs after 24 hours” in each case. In addition, the “antigen (OVA) stability in IL formulation” value on OVA was “preserve antigen stability; also recorded: stable”. Moreover, at OVA (simple dialysis replaced by SEC to remove OVA), the “binding of OVA by IL” value is listed as “bound strongly”. Besides, in [2], the “muscle tightness after injection” value was “cause muscle tightness over time”. Moreover, the IL-6 concentrations entry in the data set on Balb/c mice (setting [4]) and in the data set with C57BL/6 mice (setting [4]) was “significantly higher” throughout. The “Total IgG antibody titers” value in the data set with Balb/c mice (Day 14), with C57BL/6 mice (Day 14) and in the data set on C57BL/6 mice (Day 28) was “significantly increased” each time. Besides, the “chemokine and cytokine levels in the serum” value (24 hour mark) was “significantly higher than saline”; the “chemokine and cytokine levels in the serum” value (48 hour mark) is on record as “no significant difference from saline”. Also, where the note is “among infiltrating cell types”, the “CD4+ T cells” value is “significant increase”. In addition, the “CD45+ cell infiltration into the muscle” value (compared to saline) is reported as “more significant rate”. For the same compound, the inflammatory monocytes entry is “increase” (draining lymph node) and “increased significantly” (injection site). Also, the “mature resident cDC1 dendritic cells” value (draining lymph node) is recorded as “increase”. In addition, the Neutrophils entry (draining lymph node (dLN) after IL injection) was “spiked”. In addition, the Monocytes result (injection site) is given as “increased significantly”. Also, under “serum”, the IL-6 result was “upregulated”. Further, the MCP-1 result (serum) is recorded as “upregulated”. In addition, in the data set with Balb/c and C57BL/6 mice, the “antigen-specific immune response (T-cell and antibody)” value was “create an antigen-specific immune response in both T-cell and antibody responses”. Besides, the LPO expression result in the data set on LPO expression (early time points) is given as “induces LPO expression”; in the data set on LPO expression (treated with deferoxamine (DFO), an iron chelator), “not when treated with deferoxamine (DFO)”. Further, the “tetramer cell levels, separate vs combo delivery” value in [3] was “outperformed combo doses”. Also, the “CD4+ memory T cells” value in the data set on C57BL/6 mice (Day 21) is “significant increase”. For the same compound, the “Th1/Th2 antibody response (IgG2c, IgG1)” value in the data set on C57BL/6 mice (Day 28) is reported as “balanced immune response”. In addition, the “level of antigen-specific T cells (OVA-tetramer staining of CD8+ T cells)” value with C57BL/6 mice (especially after a booster vaccination) is given as “significantly increased”.

Consider `CC=CCCC=CCC(=O)O` [Nona-3,7-dienoate], for which, in [1], the lipophilicity (LogP) was 2.6.

Regarding `CCCCCCCCC=CCCCCCC=CCCC(=O)O` [11,4-Eicosadienoic Acid], the LogP in data set [1] is reported as 7.9.

With `C/C=C/C=C/C(=O)O` [Sorbic Acid], the LogP in [1] was 1.43.

Turning to `CC=C(C)C=C(C)C(=O)O` [2,4-Dimethyl-2,4-hexadienoic acid], the LogP in data set [1] is 2.3.

For `C=CCC/C=C/C(=O)O` [(2E)-hepta-2,6-dienoic acid], the LogP in [1] is given as 1.6.

As for `C=CCC/C=C/CC(=O)O` [(3E)-3,7-octadienoic acid], in data set [1], the log partition coefficient (LogP) is recorded as 1.8.

Take `C/C=C\CC/C=C\CCCCCCCC(=O)O` [(9Z,13Z)-pentadeca-9,13-dienoate]: the lipophilicity (LogP) in [1] was 5.5.

With `CCC/C=C\CC/C=C\CCCCCC(=O)O` [(7Z,11Z)-pentadeca-7,11-dienoate], in data set [1], the log partition coefficient (LogP) is given as 5.4.

As for `C/C=C/CC/C=C/C(=O)O` [(2E,6E)-2,6-Octadienoic acid], in data set [1], the lipophilicity (LogP) is 1.8.

With `CC(C)=C(C)/C=C/C(=O)O` [(2E)-4,5-dimethyl-2,4-hexadienoic acid], the lipophilicity (LogP) in [1] is listed as 2.5.

On to `CCC=CC=CCC(=O)O` [Octa-3,5-dienoic acid], for which the LogP in [1] was 1.8.

In the case of `C=CC=CCCCC(=O)O` [5,7-Octadienoic acid], in data set [1], the log partition coefficient (LogP) was 1.8.

In the case of `CC/C=C\C=C\C(=O)O` [2,4-Heptadienoic acid, (2E,4Z)-], in data set [1], the LogP is given as 1.8.

Regarding `C=CCCC/C=C/C(=O)O` [2E,7-Octadienoic acid], the LogP in [1] is 2.2.

With `C=CC=CCCC(=O)O` [4,6-Heptadienoic acid], the LogP in data set [1] is listed as 1.5.

As for `CCC/C=C/C=C\C(=O)O` [(2Z,4E)-Octa-2,4-dienoic acid], the LogP in [1] is recorded as 2.3.

Values taken from patent US20260108600A1, “METHODS AND COMPOSITIONS RELATING TO IMPROVED IONIC LIQUID ADJUVANTS” (PRESIDENT AND FELLOWS OF HARVARD COLLEGE, priority 2022, published 2026).
